pIC50: −log10 of the molar value.
Molecular target: T1, human OX2R (Homo sapiens, UniProt O43614)
T1 construct: expressed in transfected cells; host or cells: CHO (Chinese hamster ovary) cells, grown under G418 selection
T1 sequence (O43614 1-444): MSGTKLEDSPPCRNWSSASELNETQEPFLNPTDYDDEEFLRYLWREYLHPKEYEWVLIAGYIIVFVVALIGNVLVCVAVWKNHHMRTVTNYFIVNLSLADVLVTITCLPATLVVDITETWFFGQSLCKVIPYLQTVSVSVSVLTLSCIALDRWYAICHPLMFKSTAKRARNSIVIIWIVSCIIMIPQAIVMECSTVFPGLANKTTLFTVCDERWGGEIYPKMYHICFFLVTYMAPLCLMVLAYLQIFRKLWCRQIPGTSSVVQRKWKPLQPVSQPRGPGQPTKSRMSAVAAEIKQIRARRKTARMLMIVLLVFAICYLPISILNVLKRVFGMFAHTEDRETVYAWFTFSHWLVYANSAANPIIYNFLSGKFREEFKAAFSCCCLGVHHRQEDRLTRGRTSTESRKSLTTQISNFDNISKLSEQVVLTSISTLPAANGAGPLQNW
Experiment: IPOne (IP-1) orexin receptor agonist assay in CHO cells expressing human OX2R
Assay type: cell-based
Settings: IPOne assay, CHO cells expressing human OX2R, 2 hours incubation; read-out: hoX2R_IP IC50
Excerpt: The utility of the compounds in accordance with the present invention as orexin receptor OX1R and/or OX2R agonists may be readily determined without undue experimentation by methodology well known in the art. Both the OX1R and/or OX2R G-coupled protein receptors (GPCRs) couple through the Gaq signaling pathway, which ultimately promotes calcium mobilization via inositol triphosphate (IP3) production. The half-life of IP-3 is relatively short, being rapidly metabolized to inositol monophosphate (IP-1), which can be readily detected using a commercially available assay kit (IP-One; Cisbio; cat #621PAPEC) coupled with a cell line expressing the target receptor(s) of interest. The utility of the compounds in accordance with the present invention as orexin receptor OX1R and/or OX2R agonists may be determined utilizing this assay.
In a typical experiment, the OX1 and OX2 receptor agonist activity is determined in accordance with the following general experimental method. Chinese hamster ovary (CHO) cells expressing human OX1R and/or the human OX2R were grown in Iscove's modified DMEM containing glutaMAX™, 1% G418, 100 U/mL penicillin, 100 μg/mL streptomycin and 10% heat-inactivated qualified fetal bovine serum (FBS). The OX2R cells were seeded at 10,000 cells/well/50 μL and the OX1R cells were seeded at 20,000 cells/well/50 μL into 384-well white tissue culture plates (Greiner; cat #781080). All cell/media reagents were from GIBCO-Invitrogen Corp. The seeded cell plate(s) were incubated at 37° C. with 5% CO2 and 85% humidity for 20-24 hours. On the day of the assay, assay-ready compound plates were prepared using an acoustic liquid handler (ECHO; Labcyte), which dispensed sufficient volume of test compound stock (10 mM in DMSO) or 100% DMSO to prepare 10 point, ½-log dilutions in a final volume of 202.5 nL/well in all test wells of a 384-well diamond plate (Labcyte). Following completion of assay-ready plates, importantly, the next three steps were performed with minimal delay: 1) 20 μl of 1×stimulation buffer was added to the compound plate using a Multidrop Combi (small cassette, Thermo Fisher Scientific cat #24073290); 2) culture medium was removed from the cell plate using the Bluewasher plate washer (gentle spin; BlueCatBio); 3) 14 μl of compound/stimulation buffer mixture was added to the cell plate using a Bravo liquid handler (Agilent) prior to incubating cell plates at 37° C. with 5% CO2 and 85% humidity for 1 or 2 hours (OX1R and OX2R, respectively). During this incubation, IP-one detection reagents were prepared (38:1:1 lysis buffer:D2:AB-cryptate reagents). Six μL of mixed detection reagents were added to the cell plate using a Multidrop Combi (small cassette, Thermo Fisher Scientific cat #24073290) and incubated 60 minutes at room temperature in the dark. Fluorescence signal was detected using an Envision plate reader (Perkin Elmer) [LANCE/DELFIA Dual Enh (Em: APC 665; Ex: Cy5 620)].
For each compound, data were fit to a four parameter logistic fit (ActivityBase software) and the EC50 was reported as the inflection point of the resulting curve. Percent effect for each test compound was determined as the percentage of sample raw value/mean max effect, where the mean max effect was derived from the mean raw value of 32 control wells per assay plate (using Orexin A (cat #003-30) at 1 μM for human OX1R and a reference compound at 1 uM with 100% activity previously established by comparison to Orexin A for human OX2R). The intrinsic orexin receptor agonist activity of a compound which may be used in the present invention may be determined by these assays.

| pIC50 | SMILES |
| --- | --- |
| 7.86 | CCS(=O)(=O)N[C@H]1C[C@@H](C)N(C(=O)OC)[C@H]1CO[C@@H]1CC[C@]2(c3ncc(F)cn3)C[C@@H]2C1 [Example 47, methyl (2R,3S,5R)-3-(ethylsulfonamido)-2-((((1R,3R,6S)-6-(5-fluoropyrimidin-2-yl)bicyclo[4.1.0]heptan-3-yl)oxy)methyl)-5-methylpyrrolidine-1-carboxylate] |
| 6.52 | COC(=O)N1[C@H](C)C[C@H](NS(C)(=O)=O)[C@@H]1COC1CCC2(c3ncc(F)c(C4CC4)n3)CC2C1 (stereo partly drawn) [Example 74, methyl (2R,3S,5R)-2-(((6-(4-cyclopropyl-5-fluoropyrimidin-2-yl)bicyclo[4.1.0]heptan-3-yl)oxy)methyl)-5-methyl-3-(methylsulfonamido)pyrrolidine-1-carboxylate] |
| 8.20 | COC(=O)N1[C@H](C)C[C@H](NS(C)(=O)=O)[C@@H]1COC1CCC2(c3ncc(F)cn3)CC2C1 (stereo partly drawn) [Example 135, methyl (2R,3S,5R)-2-(((6-(5-fluoropyrimidin-2-yl)bicyclo[4.1.0]heptan-3-yl)oxy)methyl)-5-methyl-3-(methylsulfonamido)pyrrolidine-1-carboxylate] |
| 7.31 | COC(=O)N1[C@H](C)C[C@H](NS(=O)(=O)N2CCC2)[C@@H]1CO[C@@H]1CC[C@]2(c3ncc(F)cn3)C[C@@H]2C1 [Example 43, methyl (2R,3S,5R)-3-(azetidine-1-sulfonamido)-2-((((1R,3R,6S)-6-(5-fluoropyrimidin-2-yl)bicyclo[4.1.0]heptan-3-yl)oxy)methyl)-5-methylpyrrolidine-1-carboxylate] |
| 8.68 | COC(=O)N1[C@H](C)C[C@H](NS(=O)(=O)CCl)[C@@H]1CO[C@H]1CC[C@@]2(c3ncc(F)cn3)C[C@H]2C1 [Example 37, methyl (2R,3S,5R)-3-((chloromethyl)sulfonamido)-2-((((1S,3S,6R)-6-(5-fluoropyrimidin-2-yl)bicyclo[4.1.0]heptan-3-yl)oxy)methyl)-5-methylpyrrolidine-1-carboxylate] |
| 7.06 | COC(=O)N1[C@H](C)C[C@H](NS(C)(=O)=O)[C@@H]1CO[C@@H]1CC[C@]2(c3ncc(Cl)cn3)C[C@@H]2C1 (single isomer, unassigned) [Example 141] |
| 6.13 | COC(=O)N1[C@H](C)C[C@H](NS(C)(=O)=O)[C@@H]1COC1CCC2(c3ncc(F)c(C)n3)CC2C1 (stereo partly drawn) [Example 77, methyl (2R,3S,5R)-2-(((6-(5-fluoro-4-methylpyrimidin-2-yl)bicyclo[4.1.0]heptan-3-yl)oxy)methyl)-5-methyl-3-(methylsulfonamido)pyrrolidine-1-carboxylate] |
| 8.47 | CC(C)OC(=O)N1[C@H](C)C[C@H](NS(C)(=O)=O)[C@@H]1CO[C@H]1CC[C@@]2(c3ncc(F)cn3)C[C@H]2C1 (single isomer, unassigned) [Example 28] |

The next lines start with the compound.

| SMILES | pIC50 |
| --- | --- |
| CC(OC(=O)N1[C@H](C)C[C@H](NS(C)(=O)=O)[C@@H]1CO[C@H]1CC[C@@]2(c3ncc(F)cn3)C[C@H]2C1)C(F)F (stereo partly drawn) [Example 63, 1,1-Difluoropropan-2-yl (2R,3S,5R)-2-((((1S,3S,6R)-6-(5-fluoropyrimidin-2-yl)bicyclo[4.1.0]heptan-3-yl)oxy)methyl)-5-methyl-3-(methylsulfonamido)pyrrolidine-1-carboxylate] | 9.11 |
| CC(C)OC(=O)N1CCC[C@H](NS(=O)(=O)C(F)(F)F)[C@@H]1COC1CC[C@@]2(c3ncc(F)cn3)CC2C1 (stereo partly drawn) [Example 123, isopropyl (2R,3S)-2-(((6-(5-fluoropyrimidin-2-yl)bicyclo[4.1.0]heptan-3-yl)oxy)methyl)-3-((trifluoromethyl)sulfonamido)piperidine-1-carboxylate] | 8.39 |
| COC(=O)N1[C@H](C)C[C@H](NS(=O)(=O)N(C)C)[C@@H]1COC1CCC2(c3cnccn3)CC2C1 (single isomer, unassigned) [Example 14] | 6.79 |
| CC(C)OC(=O)N1[C@H](C)C[C@H](NS(=O)(=O)C(F)F)[C@@H]1COC1CCC2(c3ncc(F)cn3)CC2C1 (stereo partly drawn) [Example 109, isopropyl (2R,3S,5R)-3-((difluoromethyl)sulfonamido)-2-(((6-(5-fluoropyrimidin-2-yl)bicyclo[4.1.0]heptan-3-yl)oxy)methyl)-5-methylpyrrolidine-1-carboxylate] | 8.46 |
| COC(=O)N1[C@H](C)C[C@H](NS(=O)(=O)N(C)C)[C@@H]1COC1CCC2(c3cccc(F)c3)CC2C1 (mixture of isomers) [Example 3, methyl (2R,3S,5R)-3-((N,N-dimethylsulfamoyl)amino)-2-(((6-(3-fluorophenyl)bicyclo[4.1.0]heptan-3-yl)oxy)methyl)-5-methylpyrrolidine-1-carboxylate] | 6.73 |
| COC(=O)N1[C@H](C)C[C@H](NS(=O)(=O)N(C)C)[C@@H]1COC1CCC2(c3ncccn3)C(C1)C2(F)F (stereo partly drawn) [Example 7, methyl (2R,3S,5R)-2-(((7,7-difluoro-6-(pyrimidin-2-yl)bicyclo[4.1.0]heptan-3-yl)oxy)methyl)-3-((N,N-dimethylsulfamoyl)amino)-5-methylpyrrolidine-1-carboxylate] | 5.03 |
| C[C@@H]1C[C@H](NS(C)(=O)=O)[C@H](CO[C@H]2CC[C@@]3(c4ncc(F)cn4)C[C@H]3C2)N1C(=O)O[C@H]1COC[C@@H]1F [Example 56, (3S,4S)-4-fluorotetrahydrofuran-3-yl (2R,3S,5R)-2-((((1S,3S,6R)-6-(5-fluoropyrimidin-2-yl)bicyclo[4.1.0]heptan-3-yl)oxy)methyl)-5-methyl-3-(methylsulfonamido)pyrrolidine-1-carboxylate] | 8.04 |
| CC(F)COC(=O)N1[C@H](C)C[C@H](NS(C)(=O)=O)[C@@H]1CO[C@H]1CC[C@@]2(c3ncc(F)cn3)C[C@H]2C1 (stereo partly drawn) [Example 58, 2-fluoropropyl (2R,3S,5R)-2-((((1S,3S,6R)-6-(5-fluoropyrimidin-2-yl)bicyclo[4.1.0]heptan-3-yl)oxy)methyl)-5-methyl-3-(methylsulfonamido)pyrrolidine-1-carboxylate] | 8.70 |
| CC(C)OC(=O)N1[C@H](C)C[C@H](NS(=O)(=O)N(C)C)[C@@H]1CO[C@@H]1CC[C@]2(c3ncccn3)C[C@@H]2C1 (single isomer, unassigned) [Example 170] | 8.28 |
| COC(=O)N1[C@H](C)C[C@H](NS(=O)(=O)N(C)C)[C@@H]1COC1CCC2(c3ccc(C#N)cc3)CC2C1 (stereo partly drawn) [Example 5, methyl (2R,3S,5R)-2-(((6-(4-cyanophenyl)bicyclo[4.1.0]heptan-3-yl)oxy)methyl)-3-((N,N-dimethylsulfamoyl)amino)-5-methylpyrrolidine-1-carboxylate] | 6.56 |
| COC(=O)N1[C@H](C)C[C@H](NS(=O)(=O)C(F)(F)F)[C@@H]1CO[C@@H]1CC[C@]2(c3ncc(F)cn3)C[C@@H]2C1 [Example 44, methyl (2R,3S,5R)-2-((((1R,3R,6S)-6-(5-fluoropyrimidin-2-yl)bicyclo[4.1.0]heptan-3-yl)oxy)methyl)-5-methyl-3-((trifluoromethyl)sulfonamido)pyrrolidine-1-carboxylate] | 7.76 |

— patent US20230365533A1, “BICYCLOHEPTANE PYRROLIDINE OREXIN RECEPTOR AGONISTS” (MERCK SHARP & DOHME CORP., priority 2021, published 2023)
